# ChEMBL document CHEMBL4742387, “Condensed tricyclic compounds as protein kinase inhibitors” (2018)
# Active and inactive are the calls of the source. The rule behind the calls is not given here.
# Columns and labels:
# DU-145 [1] = test: Synergistic antiproliferative activity against human DU-145 cells assessed as reduction in cell proliferation by measuring combination index in presence of Taxol by MTT assay; format: functional
# SW-620 [2] = test: Synergistic antiproliferative activity against human SW-620 cells assessed as reduction in cell proliferation by measuring combination index in presence of Crizotinib by MTT assay; format: functional
# SW-620 [3] = test: Induction of cell cycle arrest in human SW-620 cells assessed as accumulation at G2M phase at 0.5 to 5 uM incubated for 24 hrs by propidium iodide staining based assay; format: functional; conditions: dose 0.5-5 µM
# SW-620 [4] = test: Synergistic antiproliferative activity against human SW-620 cells assessed as reduction in cell proliferation by measuring combination index in presence of oxaliplatin by MTT assay; format: functional
# MOLM-13 = test: Antiproliferative activity against human MOLM-13 cells assessed as reduction in cell proliferation by CellTiter-Glo luminescent cell viability assay; format: functional; conditions: Homo sapiens, MOLM-13
# A549 [5] = test: Antiproliferative activity against human A549 cells assessed as reduction in cell proliferation by CellTiter-Glo luminescent cell viability assay; format: functional
# Mus musculus [6] = test: Inhibition of CDK8 in athymic nude mouse xenografted with human SW-620 cells assessed as reduction in STAT1 S727 phosphorylation 5 mg/kg, po administered as single dose after 1 hr by Western blot analysis; format: functional, organism-based
# SW-620 [7] = test: Synergistic antiproliferative activity against human SW-620 cells assessed as reduction in cell proliferation by measuring combination index in presence of ABT-751 by MTT assay; format: functional
# DU-145 [8] = test: Synergistic antiproliferative activity against human DU-145 cells assessed as reduction in cell proliferation by measuring combination index in presence of Ali-sertib by MTT assay; format: functional
# [9] = molecular target: Cyclin-dependent kinase 8 (Homo sapiens, UniProt P49336); test: Inhibition of CDK8 in human SW-620 cells assessed as reduction in STAT1 S727 phosphorylation pre-incubated for 1 hr before IFNgamma stimulation for 3 hrs by Western blot analysis; format: cell-based
# SW-620 [10] = test: Synergistic antiproliferative activity against human SW-620 cells assessed as reduction in cell proliferation by measuring combination index in presence of Elesclomol by MTT assay; format: functional
# BXPC-3 [11] = test: Synergistic antiproliferative activity against human BXPC-3 cells assessed as reduction in cell proliferation by measuring combination index in presence of crizotinib by MTT assay; format: functional
# SW-620 [12] = test: Synergistic antiproliferative activity against human SW-620 cells assessed as reduction in cell proliferation by measuring combination index in presence of taxol by MTT assay; format: functional
# MV4-11 = test: Antiproliferative activity against human MV4-11 cells assessed as reduction in cell proliferation by CellTiter-Glo luminescent cell viability assay; format: functional; conditions: Homo sapiens, MV4-11
# SW-620 [13] = test: Inhibition of colony formation of human SW-620 cells incubated for 11 days (Every 3 days medium is changed by fresh medium and compounds were added freshly) by crystal violet staining based assay; format: functional, cell-based
# [14] = molecular target: T1, Serine/threonine-protein kinase haspin (Homo sapiens, UniProt Q8TF76); test: Inhibition of haspin in human SW620 cells assessed as reduction in IFNgamma-induced H3T3 phosphorylation pre-incubated for 1 hr before IFNgamma stimulation for 3 hrs by Western blot analysis; format: cell-based, SW-620
# T1 sequence (Q8TF76 whole entry): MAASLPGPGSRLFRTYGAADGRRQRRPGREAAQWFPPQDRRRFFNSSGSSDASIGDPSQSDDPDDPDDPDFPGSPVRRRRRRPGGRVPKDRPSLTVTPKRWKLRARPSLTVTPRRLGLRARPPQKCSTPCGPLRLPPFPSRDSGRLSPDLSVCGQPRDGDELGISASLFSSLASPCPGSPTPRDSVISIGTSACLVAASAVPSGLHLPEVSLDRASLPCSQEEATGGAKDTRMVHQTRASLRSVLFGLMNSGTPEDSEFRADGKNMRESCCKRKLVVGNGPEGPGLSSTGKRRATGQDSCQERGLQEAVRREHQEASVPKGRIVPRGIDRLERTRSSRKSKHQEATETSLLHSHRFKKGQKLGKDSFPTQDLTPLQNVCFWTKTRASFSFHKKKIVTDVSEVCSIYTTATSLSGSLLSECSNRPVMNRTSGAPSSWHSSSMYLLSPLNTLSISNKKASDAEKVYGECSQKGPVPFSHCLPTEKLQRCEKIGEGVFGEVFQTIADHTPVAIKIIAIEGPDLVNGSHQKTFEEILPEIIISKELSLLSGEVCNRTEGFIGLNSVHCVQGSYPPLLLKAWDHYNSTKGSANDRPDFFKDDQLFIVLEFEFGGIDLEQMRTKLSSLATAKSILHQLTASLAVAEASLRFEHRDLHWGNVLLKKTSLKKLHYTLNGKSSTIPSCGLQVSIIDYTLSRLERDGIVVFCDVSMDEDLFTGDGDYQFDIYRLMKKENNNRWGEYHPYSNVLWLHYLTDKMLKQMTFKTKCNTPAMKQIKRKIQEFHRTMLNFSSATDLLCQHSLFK
# Mus musculus [15] = test: Inhibition of CDK8 in athymic nude mouse xenografted with human SW-620 cells assessed as reduction in STAT1 S727 phosphorylation 5 mg/kg, po administered as single dose after 4 hrs by Western blot analysis; format: functional, organism-based
# SK-MEL19 [16] = test: Synergistic antiproliferative activity against human SK-MEL19 cells assessed as reduction in cell proliferation by measuring combination index in presence of Elesclomol by MTT assay; format: functional
# SK-MEL19 [17] = test: Antiproliferative activity against human SK-MEL19 cells assessed as reduction in cell proliferation by CellTiter-Glo luminescent cell viability assay; format: functional
# HCT-116 [18] = test: Antiproliferative activity against human HCT-116 cells assessed as reduction in cell proliferation by CellTiter-Glo luminescent cell viability assay; format: functional
# DU-145 [19] = test: Synergistic antiproliferative activity against human DU-145 cells assessed as reduction in cell proliferation by measuring combination index in presence of crizotinib by MTT assay; format: functional
# A549 [20] = test: Synergistic antiproliferative activity against human A549 cells assessed as reduction in cell proliferation by measuring combination index in presence of Elesclomol by MTT assay; format: functional
# BXPC-3 [21] = test: Antiproliferative activity against human BXPC-3 cells assessed as reduction in cell proliferation by CellTiter-Glo luminescent cell viability assay; format: functional
# SW-620 [22] = test: Antiproliferative activity against human SW-620 cells assessed as reduction in cell proliferation by CellTiter-Glo luminescent cell viability assay; format: functional; conditions: Homo sapiens, SW-620
# MDA-MB-231 [23] = test: Synergistic antiproliferative activity against human MDA-MB-231 cells assessed as reduction in cell proliferation by measuring combination index in presence of Elesclomol by MTT assay; format: functional
# HCT-116 [24] = test: Synergistic antiproliferative activity against human HCT-116 cells assessed as reduction in cell proliferation by measuring combination index in presence of crizotinib by MTT assay; format: functional
# SW-620 [25] = test: Synergistic antiproliferative activity against human SW-620 cells assessed as reduction in cell proliferation by measuring combination index in presence of Ali-sertib by MTT assay; format: functional
# BXPC-3 [26] = test: Synergistic antiproliferative activity against human BXPC-3 cells assessed as reduction in cell proliferation by measuring combination index in presence of Elesclomol by MTT assay; format: functional
# HCT-116 [27] = test: Synergistic antiproliferative activity against human HCT-116 cells assessed as reduction in cell proliferation by measuring combination index in presence of Ali-sertib by MTT assay; format: functional
# [28] = molecular target: T2, Serine/threonine-protein kinase haspin (Homo sapiens) (UniProt Q8TF76); test: Inhibition of haspin in synchronized human SW620 cells assessed as reduction in IFNgamma-induced H3T3 phosphorylation pre-incubated for 1 hr before IFNgamma stimulation for 3 hrs by Western blot analysis; format: cell-based; conditions: SW-620, time 4.0 hrs
# T2 sequence (whole entry): T1 sequence (Q8TF76 whole entry)
# HCT-116 [29] = test: Synergistic antiproliferative activity against human HCT-116 cells assessed as reduction in cell proliferation by measuring combination index in presence of taxol by MTT assay; format: functional
# SW-620 [30] = test: Induction of apoptosis in human SW-620 cells at 0.5 to 5 uM incubated for 24 hrs by propidium iodide staining based assay; format: functional, cell-based; conditions: dose 0.5-5 µM
# MDA-MB-231 [31] = test: Antiproliferative activity against human MDA-MB-231 cells assessed as reduction in cell proliferation by CellTiter-Glo luminescent cell viability assay; format: functional; conditions: Homo sapiens, MDA-MB-231
# DU-145 [32] = test: Antiproliferative activity against human DU-145 cells assessed as reduction in cell proliferation by CellTiter-Glo luminescent cell viability assay; format: functional
# SK-MEL19 [33] = test: Synergistic antiproliferative activity against human SK-MEL19 cells assessed as reduction in cell proliferation by measuring combination index in presence of Crizotinib by MTT assay; format: functional
# Sequence of Cyclin-dependent kinase 8 (P49336 whole entry): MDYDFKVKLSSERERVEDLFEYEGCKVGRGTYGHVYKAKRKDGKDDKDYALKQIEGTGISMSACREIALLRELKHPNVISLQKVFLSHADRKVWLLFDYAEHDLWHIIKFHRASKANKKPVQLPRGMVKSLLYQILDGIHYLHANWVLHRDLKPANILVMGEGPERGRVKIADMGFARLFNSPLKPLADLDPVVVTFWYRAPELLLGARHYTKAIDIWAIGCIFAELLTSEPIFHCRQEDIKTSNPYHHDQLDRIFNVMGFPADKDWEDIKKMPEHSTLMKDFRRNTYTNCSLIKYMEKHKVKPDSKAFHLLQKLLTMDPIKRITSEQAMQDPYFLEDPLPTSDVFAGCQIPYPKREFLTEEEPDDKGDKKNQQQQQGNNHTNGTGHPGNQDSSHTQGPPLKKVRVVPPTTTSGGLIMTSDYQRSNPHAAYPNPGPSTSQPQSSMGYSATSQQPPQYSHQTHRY
smiles,measurement,setting,value
CCn1c(C(N)=O)cc2c1-c1ccncc1OC2(C)C,CI,DU-145 [1],0.21
same,CI,SW-620 [2],0.65
same,Activity,SW-620 [3],Dose-dependent effect
same,CI,SW-620 [4],0.53
same,GI50,MOLM-13,0.349 µM
same,GI50,A549 [5],5 µM
same,inhibition,Mus musculus [6],Active
same,CI,SW-620 [7],0.18
same,CI,DU-145 [8],0.65
same,IC50,[9],0.0015 µM
same,CI,SW-620 [10],0.05
same,CI,BXPC-3 [11],0.72
same,CI,SW-620 [12],0.28
same,GI50,MV4-11,0.115 µM
same,EC50,SW-620 [13],0.051 µM
same,IC50,[14],0.0016 µM
same,inhibition,Mus musculus [15],Active
same,CI,SK-MEL19 [16],0.49
same,GI50,SK-MEL19 [17],1.25 µM
same,GI50,HCT-116 [18],5 µM
same,CI,DU-145 [19],0.44
same,CI,A549 [20],0.63
same,GI50,BXPC-3 [21],5 µM
same,GI50,SW-620 [22],3.39 µM
same,CI,MDA-MB-231 [23],0.59
same,CI,HCT-116 [24],0.58
same,CI,SW-620 [25],0.52
same,CI,BXPC-3 [26],0.25
same,CI,HCT-116 [27],0.64
same,INH,[28],1.5 10^-8mol/L
same,CI,HCT-116 [29],0.63
same,Activity,SW-620 [30],Dose-dependent effect
same,GI50,MDA-MB-231 [31],3.5 µM
same,GI50,DU-145 [32],5 µM
same,CI,SK-MEL19 [33],0.55
